Test results reported in patent US20150260723A1, “COMPANION DIAGNOSTICS FOR TEC FAMILY KINASE INHIBITOR THERAPY” (PHARMACYCLICS, INC., priority 2012, published 2015).
Where “and” joins values, the source holds several entries; their conditions need not be identical. Identical values can stand only once.

How the values were obtained:
[1] = target: T1, BLK (Homo sapiens, UniProt P51451); assay: standard kinase inhibition assay performed by Nanosyn; assay type: biochemical; settings: [Enzyme] 0.4 nM, [ATP] 20 μM, inc time 1 hr
T1 construct: purchased BPS 40401
T1 sequence (P51451 whole entry): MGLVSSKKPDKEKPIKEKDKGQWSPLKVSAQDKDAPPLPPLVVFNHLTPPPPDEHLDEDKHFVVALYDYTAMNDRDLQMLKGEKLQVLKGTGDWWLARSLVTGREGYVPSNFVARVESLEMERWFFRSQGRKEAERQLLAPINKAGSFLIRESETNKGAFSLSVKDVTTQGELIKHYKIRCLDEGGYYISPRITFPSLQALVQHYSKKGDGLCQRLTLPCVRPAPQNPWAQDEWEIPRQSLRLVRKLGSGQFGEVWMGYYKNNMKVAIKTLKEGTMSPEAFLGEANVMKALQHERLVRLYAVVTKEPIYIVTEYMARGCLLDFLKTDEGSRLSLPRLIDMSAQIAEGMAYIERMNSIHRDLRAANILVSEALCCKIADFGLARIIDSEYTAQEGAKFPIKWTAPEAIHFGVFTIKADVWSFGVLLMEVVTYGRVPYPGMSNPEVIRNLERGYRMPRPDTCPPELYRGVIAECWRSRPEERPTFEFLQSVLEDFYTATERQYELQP
Procedure: (§1) The following kinases were assayed according the table 4 below:
(§2) Compounds were tested in singlicates using 12 pt (3×-dilutions) dose response format with top concentration of 10 mM or 1 mM.

[2] = target: T2, BMX (Homo sapiens, UniProt P51813); assay: as above; assay type: biochemical; settings: [Enzyme] 1.82 nM, [ATP] 75 μM, inc time 1 hr
T2 construct: purchased BPS 40402
T2 sequence (P51813 1-675): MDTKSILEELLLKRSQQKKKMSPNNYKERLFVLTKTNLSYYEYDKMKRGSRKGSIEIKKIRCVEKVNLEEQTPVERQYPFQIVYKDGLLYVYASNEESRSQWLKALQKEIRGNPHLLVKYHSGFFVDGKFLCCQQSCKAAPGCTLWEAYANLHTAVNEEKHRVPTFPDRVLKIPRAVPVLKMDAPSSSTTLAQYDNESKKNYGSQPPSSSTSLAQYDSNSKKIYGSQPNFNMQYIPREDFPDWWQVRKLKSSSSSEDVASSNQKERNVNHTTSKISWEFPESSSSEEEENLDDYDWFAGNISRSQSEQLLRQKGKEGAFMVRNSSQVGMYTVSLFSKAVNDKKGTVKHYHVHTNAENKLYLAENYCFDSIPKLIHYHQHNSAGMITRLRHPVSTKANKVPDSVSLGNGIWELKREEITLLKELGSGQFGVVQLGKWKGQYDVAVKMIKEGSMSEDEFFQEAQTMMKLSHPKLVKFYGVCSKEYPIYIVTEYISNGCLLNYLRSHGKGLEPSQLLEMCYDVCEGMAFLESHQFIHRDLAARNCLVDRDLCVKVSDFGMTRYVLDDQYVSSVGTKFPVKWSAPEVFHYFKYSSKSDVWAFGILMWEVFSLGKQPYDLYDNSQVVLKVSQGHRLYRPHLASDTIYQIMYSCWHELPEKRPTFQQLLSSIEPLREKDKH
Procedure: as §1, §2

[3] = target: T3, BTK (Homo sapiens, UniProt Q06187); assay: as above; assay type: biochemical; settings: [Enzyme] 0.95 nM, [ATP] 20 μM, inc time 1 hr
T3 sequence (Q06187 whole entry): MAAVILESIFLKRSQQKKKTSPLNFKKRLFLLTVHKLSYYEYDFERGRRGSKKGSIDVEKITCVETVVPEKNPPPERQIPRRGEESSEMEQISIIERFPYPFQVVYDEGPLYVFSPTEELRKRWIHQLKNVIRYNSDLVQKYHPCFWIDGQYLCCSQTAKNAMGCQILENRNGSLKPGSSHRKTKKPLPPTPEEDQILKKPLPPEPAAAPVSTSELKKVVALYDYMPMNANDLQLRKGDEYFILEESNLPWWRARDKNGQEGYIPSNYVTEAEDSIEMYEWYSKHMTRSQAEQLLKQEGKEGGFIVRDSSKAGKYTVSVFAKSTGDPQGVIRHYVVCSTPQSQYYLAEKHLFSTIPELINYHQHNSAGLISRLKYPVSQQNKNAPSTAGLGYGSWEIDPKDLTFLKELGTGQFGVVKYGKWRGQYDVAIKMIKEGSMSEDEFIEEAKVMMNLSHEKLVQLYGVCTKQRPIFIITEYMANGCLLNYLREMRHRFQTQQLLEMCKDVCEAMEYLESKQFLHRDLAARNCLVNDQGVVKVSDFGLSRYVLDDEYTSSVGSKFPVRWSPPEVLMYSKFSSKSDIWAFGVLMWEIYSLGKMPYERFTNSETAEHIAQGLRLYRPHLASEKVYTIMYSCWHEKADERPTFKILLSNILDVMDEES
Procedure: as §1, §2

[4] = target: T4, ITK (Homo sapiens, UniProt Q08881); assay: as above; assay type: biochemical; settings: [Enzyme] 1 nM, [ATP] 50 μM, inc time 3 hr
T4 construct: endogenous in cells; host or cells: Jurkat cell lysate
T4 sequence (Q08881 1-620): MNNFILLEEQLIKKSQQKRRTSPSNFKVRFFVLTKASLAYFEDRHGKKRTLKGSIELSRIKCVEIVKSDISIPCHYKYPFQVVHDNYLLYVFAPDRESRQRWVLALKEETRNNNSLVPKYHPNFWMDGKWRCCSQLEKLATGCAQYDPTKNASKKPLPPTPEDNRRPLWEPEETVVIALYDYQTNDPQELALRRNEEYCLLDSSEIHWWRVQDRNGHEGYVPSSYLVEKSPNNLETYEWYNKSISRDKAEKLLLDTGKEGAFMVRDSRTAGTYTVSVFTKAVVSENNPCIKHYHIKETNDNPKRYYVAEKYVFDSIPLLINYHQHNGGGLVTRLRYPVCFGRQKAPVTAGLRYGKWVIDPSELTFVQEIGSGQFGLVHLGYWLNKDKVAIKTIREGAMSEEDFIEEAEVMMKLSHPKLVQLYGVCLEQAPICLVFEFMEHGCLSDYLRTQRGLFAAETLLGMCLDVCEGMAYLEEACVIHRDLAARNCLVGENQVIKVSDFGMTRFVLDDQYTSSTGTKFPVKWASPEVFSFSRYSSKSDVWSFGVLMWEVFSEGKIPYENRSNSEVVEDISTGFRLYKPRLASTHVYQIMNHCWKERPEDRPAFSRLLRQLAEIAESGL
Procedure: as §1, §2

[5] = target: T5, JAK3 (Homo sapiens, UniProt P52333); assay: as above; assay type: biochemical; settings: [Enzyme] 2 nM, [ATP] 2 μM, inc time 3 hr
T5 construct: purchased INVITROGEN PV3855
T5 sequence (P52333 781-1124 limits assumed): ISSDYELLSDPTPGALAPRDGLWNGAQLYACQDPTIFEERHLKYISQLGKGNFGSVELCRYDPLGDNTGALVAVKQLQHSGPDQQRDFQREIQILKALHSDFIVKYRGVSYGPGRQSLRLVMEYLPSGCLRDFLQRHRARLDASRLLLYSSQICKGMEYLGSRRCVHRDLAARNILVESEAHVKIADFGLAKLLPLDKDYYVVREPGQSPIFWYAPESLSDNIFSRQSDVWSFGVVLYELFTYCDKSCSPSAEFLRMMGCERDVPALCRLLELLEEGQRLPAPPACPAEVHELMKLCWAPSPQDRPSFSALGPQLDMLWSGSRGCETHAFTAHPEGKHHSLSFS
Procedure: as §1, §2

[6] = target: T6, LCK (Homo sapiens, UniProt P06239); assay: as above; assay type: biochemical; settings: [Enzyme] 0.4 nM, [ATP] 50 μM, inc time 1 hr
T6 construct: purchased INVITROGEN P3043
T6 sequence (P06239 whole entry): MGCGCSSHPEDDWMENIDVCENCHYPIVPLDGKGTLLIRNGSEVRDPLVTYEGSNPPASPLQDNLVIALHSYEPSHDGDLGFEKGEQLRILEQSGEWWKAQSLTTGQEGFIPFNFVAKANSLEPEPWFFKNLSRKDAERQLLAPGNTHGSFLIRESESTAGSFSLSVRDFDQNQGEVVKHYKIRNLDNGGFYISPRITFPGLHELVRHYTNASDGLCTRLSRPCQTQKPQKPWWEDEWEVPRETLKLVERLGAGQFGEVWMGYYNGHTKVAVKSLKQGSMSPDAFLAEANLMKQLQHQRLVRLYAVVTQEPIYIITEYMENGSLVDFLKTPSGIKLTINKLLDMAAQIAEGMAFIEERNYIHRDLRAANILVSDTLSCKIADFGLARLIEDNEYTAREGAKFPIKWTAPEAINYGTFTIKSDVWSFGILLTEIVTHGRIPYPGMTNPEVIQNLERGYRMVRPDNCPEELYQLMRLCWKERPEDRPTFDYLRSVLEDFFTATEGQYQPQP
Procedure: as §1, §2

[7] = target: T7, SRC (Homo sapiens, UniProt P12931); assay: as above; assay type: biochemical; settings: [Enzyme] 3 nM, [ATP] 25 μM, inc time 1 hr
T7 construct: purchased INVITROGEN P3044
T7 sequence (P12931 whole entry): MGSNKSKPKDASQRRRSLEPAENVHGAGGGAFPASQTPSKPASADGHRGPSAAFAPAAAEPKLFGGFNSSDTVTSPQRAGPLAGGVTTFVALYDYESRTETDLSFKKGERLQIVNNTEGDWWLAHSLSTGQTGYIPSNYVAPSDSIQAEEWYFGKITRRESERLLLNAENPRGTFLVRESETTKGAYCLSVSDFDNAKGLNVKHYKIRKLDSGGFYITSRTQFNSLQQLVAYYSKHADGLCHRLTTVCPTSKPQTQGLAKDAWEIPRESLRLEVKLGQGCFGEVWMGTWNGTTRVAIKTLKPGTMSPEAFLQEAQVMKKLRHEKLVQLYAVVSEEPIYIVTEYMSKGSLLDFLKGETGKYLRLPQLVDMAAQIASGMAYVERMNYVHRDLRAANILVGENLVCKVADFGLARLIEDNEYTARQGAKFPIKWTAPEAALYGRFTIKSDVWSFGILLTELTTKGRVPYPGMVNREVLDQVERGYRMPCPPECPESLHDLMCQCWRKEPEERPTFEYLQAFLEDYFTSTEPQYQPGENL
Procedure: as §1, §2

[8] = target: T8, TEC (Homo sapiens, UniProt P42680); assay: as above; assay type: biochemical; settings: [Enzyme] 4.6 nM, [ATP] 12 μM, inc time 1 hr
T8 construct: purchased Millipore 14-801
T8 sequence (P42680 1-631): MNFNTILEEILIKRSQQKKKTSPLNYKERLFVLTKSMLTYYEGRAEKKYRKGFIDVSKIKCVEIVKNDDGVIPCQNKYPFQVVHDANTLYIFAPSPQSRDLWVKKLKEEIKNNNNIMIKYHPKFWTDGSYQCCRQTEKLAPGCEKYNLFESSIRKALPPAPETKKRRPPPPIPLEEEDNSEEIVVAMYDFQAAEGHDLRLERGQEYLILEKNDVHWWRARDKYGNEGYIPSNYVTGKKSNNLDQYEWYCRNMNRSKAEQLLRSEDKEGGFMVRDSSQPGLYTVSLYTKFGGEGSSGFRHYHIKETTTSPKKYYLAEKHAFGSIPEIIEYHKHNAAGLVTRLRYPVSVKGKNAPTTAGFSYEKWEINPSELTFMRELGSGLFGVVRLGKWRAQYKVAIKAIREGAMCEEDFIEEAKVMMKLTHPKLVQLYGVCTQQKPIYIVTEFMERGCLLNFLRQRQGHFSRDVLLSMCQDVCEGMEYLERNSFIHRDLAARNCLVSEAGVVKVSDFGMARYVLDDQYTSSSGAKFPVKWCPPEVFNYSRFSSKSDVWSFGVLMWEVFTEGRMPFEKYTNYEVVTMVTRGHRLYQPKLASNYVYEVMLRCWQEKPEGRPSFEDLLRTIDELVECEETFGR
Procedure: as §1, §2

[9] = target: T3, BTK; assay: Comparison of biotinylated probes, streptavidin coated plate BTK occupancy assay; assay type: binding; design: Positive Control lysates from BTK expressing cell line (DOHH2); endogenous in cells; host or cells: DOHH2 cell lysate; settings: DOHH2 lysate, high and low probe concentrations
Procedure: Selected biotinylated probes were tested for use in target occupancy assays using either the anti-protein antibody coated plate or streptavidin coated plate assay formats. The following probes were tested:
Stock solutions (5 mM and 10 mM) of the probes were prepared as follows. […] For the assays 50× probe was prepared fresh the day of the assay: 1 μl of 5 mM probe to […] PBS.
1) Dilute lysate to desired concentration with PBS to final volume of 500 μl
2) Add Biotinylated probe (final concentration 2.5 μM) to lysate, 37 C for 1 hr
3) Block streptavidin plate w/ 1% BSA, RT, 1 hr, wash w/ PBST 3×
4) Stop reaction by transfer samples onto ice for 10 min, then bring back to RT
5) Add 100 ul treated lysate (in triplicate) to streptavidin plate, RT, 2 hr w/ rocking
6) Wash with 200 μl PBST, 5×
7) Add 100 μl 2nd Ab-HRP, incubate at RT for 1 hr
8) Wash with 200 μl PBST, 3×
9) Add 100 μl TMB, incubate at RT for 10 min
10) Add 50 μl stop solution

IC50 [1]: 4.27 nM and 3.66 nM
IC50 [2]: 5.57 nM and 4.42 nM
IC50 [3]: 1.02 nM and 0.755 nM
IC50 [4]: 198 nM and 187 nM
IC50 [5]: 4870 nM and 5340 nM
IC50 [6]: 6.92 nM and 5.99 nM
IC50 [7]: 36.3 nM and 33.8 nM
IC50 [8]: 2.29 nM and 1.71 nM
signal for binding to BTK out of the probes tested [9]: highest signal
SMILES: CN(C/C=C/C(=O)N1CCC[C@@H](n2nc(-c3ccc(Oc4ccccc4)cc3)c3c(N)ncnc32)C1)CCCCNC(=O)CCCC(=O)NCCCOCCOCCOCCCNC(=O)CCCC[C@@H]1SC[C@@H]2NC(=O)N[C@@H]21 [Compound I-5]
